The results in this text go back to PubChem BioAssay AID1033 (Sanford-Burnham Center for Chemical Genomics, 2008).

Molecules are shown by their SMILES. Active and inactive are the calls of the source. The rule behind the calls is not given here. Residues, ends and D or L forms follow the SMILES beside them.

The target in the test is Chaperone protein DnaK (Escherichia coli (strain K12)) (UniProt P0A6Y8). In words: E. coli DnaK SBD ligand binding – biophysical, NMR, chaperone (AID 1033). Particulars: Purified DnaK SBD.
Chain of Chaperone protein DnaK (Escherichia coli (strain K12)) (P0A6Y8 whole entry, looked up): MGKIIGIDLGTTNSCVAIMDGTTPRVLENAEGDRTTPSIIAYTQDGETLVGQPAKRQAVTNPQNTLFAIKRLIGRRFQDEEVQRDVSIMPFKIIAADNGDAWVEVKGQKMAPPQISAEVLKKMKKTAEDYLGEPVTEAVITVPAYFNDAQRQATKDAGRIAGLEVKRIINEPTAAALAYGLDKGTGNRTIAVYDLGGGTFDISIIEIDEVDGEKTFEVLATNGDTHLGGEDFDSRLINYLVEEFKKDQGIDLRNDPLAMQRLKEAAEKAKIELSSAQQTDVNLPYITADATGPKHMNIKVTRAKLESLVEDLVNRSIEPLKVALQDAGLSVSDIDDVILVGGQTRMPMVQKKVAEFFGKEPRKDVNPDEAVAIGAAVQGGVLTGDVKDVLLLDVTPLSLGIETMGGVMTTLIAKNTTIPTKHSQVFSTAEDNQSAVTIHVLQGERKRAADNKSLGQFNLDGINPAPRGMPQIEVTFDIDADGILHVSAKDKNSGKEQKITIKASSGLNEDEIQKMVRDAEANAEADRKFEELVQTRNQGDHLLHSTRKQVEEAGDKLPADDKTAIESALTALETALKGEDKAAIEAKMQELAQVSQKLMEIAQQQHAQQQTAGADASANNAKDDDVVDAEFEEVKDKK
With `Cn1cc(C(=O)N/N=C/c2ccccc2)ccc1=O`, the Kd (in general, the concentration at which binding is half-saturated) was > 4 mM (inactive). With `O=C1NC(=O)C(=Cc2ccccc2)C(=O)N1`, the Kd was > 4 mM (inactive).

As to `O=c1[nH]c(N2CCOCC2)nc2ccccc12`, the Kd was > 4 mM (inactive). The value for `CC(C)CC(=O)Nc1c[nH]c(=O)[nH]c1=O` was > 4 mM (inactive); that for `COc1cccc(C(=O)N2CCOCC2)c1` was > 4 mM (inactive); that for `COc1ccc(NC2=NCC(C)S2)cc1` (configuration not stated) was > 4 mM (inactive). With `COc1ccccc1-c1nc(-c2ccc(C)nc2OC)no1`, the Kd was > 4 mM (inactive).

Regarding `COc1ccc(C2(C)CC(=O)NC2=O)cc1` (configuration not stated), the Kd was > 4 mM (inactive). Then `O=c1[nH]nc(Cc2ccccn2)c2ccccc12`, with > 4 mM (inactive); and `CCn1cnc(C(=O)NC)c1C(=O)NC`, with > 4 mM (inactive). Then `Cc1ccccc1-n1c(-c2ccncc2)n[nH]c1=S`, with > 4 mM (inactive); and `C=C(C)C1(O)OC(=O)C=C1OC` (configuration not stated), with > 4 mM (inactive). Then `c1ccc2c(c1)nnn2C1CCNCC1`, with > 4 mM (inactive); and `CCOC(=O)c1c(-c2ccncc2)csc1N`, with > 4 mM (inactive); and `O=[N+]([O-])c1ccc2c(c1)N([O-])C1(CCCCC1)[N+]2=O`, with > 4 mM (inactive).

Regarding `Cc1cc(=O)n(C(N)=S)[nH]1`, the Kd was > 4 mM (inactive). The value for `O=C(O)c1ccc(-c2cccs2)s1` was > 4 mM (inactive). Then `CC(=O)Nc1cc2c(cc1C(=O)C(C)C)OCCO2`, with > 4 mM (inactive); and `O=C(O)Cn1c(C(F)(F)F)nc2ccccc21`, with > 4 mM (inactive). With `O=C(O)CC[N+](=O)[O-]`, the Kd is > 4 mM (inactive).

For the compound `Cc1nnc(SCC(=O)N2CCCCC2)s1`, the Kd was > 4 mM (inactive).

`CC(=O)c1cnc2nc(C(F)(F)F)nn2c1C`: the Kd was > 4 mM (inactive). In the case of `O=C1CSC(=S)N1Cc1cccnc1`, the Kd is > 4 mM (inactive). Take `COc1cc2c(cc1OC)C1=C(C#N)CCC(=O)N1CC2`: the Kd was > 4 mM (inactive). Then `O=C1NC(=O)C(Cc2cccs2)C(=O)N1`, with > 4 mM (inactive). With `C[C@H]1OC(O[C@H]2[C@@H](O)CC(O[C@H]3[C@@H](O)C[C@H](O[C@H]4CC[C@]5(C)C6CC[C@]7(C)[C@@H](C8=CC(=O)OC8)[C@@H](O)C[C@]7(O)[C@@H]6CC[C@@H]5C4)O[C@@H]3C)O[C@@H]2C)C[C@H](O)C1O` (some centres not stated), the Kd is > 4 mM (inactive). For `Cc1ccc(SCc2cc(=O)n3[nH]c(C)nc3n2)cc1`, the Kd was > 4 mM (inactive). Then `COCc1cc(C)nc2sc(C(=O)OC)c(N)c12`, with > 4 mM (inactive). Turning to `Cc1ncc(CC(=O)O)s1`, the Kd was > 4 mM (inactive). As for `O=C(Nc1ccon1)c1cccc(Cl)c1`, the Kd was > 4 mM (inactive).

For the compound `CC(=O)Nc1ccc(Nc2nnc(C)c(=O)[nH]2)cc1`, the Kd is > 4 mM (inactive). Take `CC(Sc1ncn[nH]1)C(=O)O` (configuration not stated): the Kd was > 4 mM (inactive).

With `CCOc1cc(C)c(Cl)cc1S(=O)(=O)N(C)C`, the Kd is > 4 mM (inactive).

Consider `COC(=O)c1ccc(Cl)c(NC(C)=O)c1`, for which the Kd was > 4 mM (inactive). Then `COc1cc2c3cc1Oc1cc(ccc1O)C[C@@H]1c4c(cc(OC)c(O)c4Oc4ccc(cc4)C[C@@H]3N(C)CC2)CC[N+]1(C)C`, with > 4 mM (inactive); and `O=C1NC(=S)N/C1=C\c1ccccc1`, with > 4 mM (inactive); and `COc1ccc(-c2coc3cc(O)ccc3c2=O)cc1`, with > 4 mM (inactive). With `CC(=O)OC1CC[C@@]2(C)C(CCC3C2CC[C@]2(C)C(C4=CC(=O)OC4)C(OC(C)=O)CC32O)C1` (some centres not stated), the Kd was > 4 mM (inactive). Regarding `CN(C)C(=O)Nc1ccc(F)cc1F`, the Kd is > 4 mM (inactive). The value for `CCOC(=O)c1nc2ccccc2c(=O)n1N` was > 4 mM (inactive); that for `CCc1ccccc1NC(=O)c1cnccn1` was > 4 mM (inactive); that for `CSc1nsc(SCc2cnc(C)nc2N)n1` was > 4 mM (inactive). Then `C[C@H]1C(=O)O[C@@H]2CCN3CC=C(COC(=O)[C@](C)(O)[C@]1(C)O)[C@H]23`, with > 4 mM (inactive). The value for `Cc1cc(C)cc(C(=O)n2cnnc2N)c1` was > 4 mM (inactive).

As for `COc1cc(-c2nnc(NC(C)=O)o2)cc(OC)c1OC`, the Kd is > 4 mM (inactive). For `Cc1cc(=O)cc(C)n1-c1ccccc1N1CCOCC1`, the Kd is > 4 mM (inactive). Then `COC(=O)c1ccc2nccnc2c1`, with > 4 mM (inactive); and `c1ccc(CCN2CCN(CCc3ccccn3)CC2)nc1`, with > 4 mM (inactive). In the case of `COC(=O)NCc1cc2cc(Cl)ccc2[nH]1`, the Kd was > 4 mM (inactive).

As for `COc1cc(N)ccc1NC(=O)c1cccs1`, the Kd was > 4 mM (inactive).

`Cc1cc(SCC(=O)c2ccccc2)nc(=O)[nH]1`: the Kd is > 4 mM (inactive). `Cn1cnc2ccc([N+](=O)[O-])cc2c1=O`: the Kd was > 4 mM (inactive). Then `Cc1cc(NC(=O)NCCCSc2nncn2C)no1`, with > 4 mM (inactive); and `CC(C)c1ccc2c(c1)CCC1[C@](C)(CN)CCC[C@]21C` (some centres not stated), with > 4 mM (inactive); and `O=C(Nc1cccc(O)c1)c1ccccc1`, with > 4 mM (inactive).

On to `CNC(=O)C1CC(=O)N(c2ccc(O)cc2)C1` (configuration not stated), for which the Kd is > 4 mM (inactive). The value for `COc1ccccc1NC(=O)c1ccc(Br)o1` was > 4 mM (inactive). The value for `O=c1cc(O)n(-c2ccc(F)cc2)c(=S)[nH]1` was > 4 mM (inactive); that for `CC(O)c1ccc(C(C)O)cc1` (configuration not stated) was > 4 mM (inactive); that for `CCOC(=O)c1c(C)cc(O)c(C=O)c1O` was > 4 mM (inactive). For the compound `O=C(c1ccccc1)c1ccccc1C(=O)N1CCCC1`, the Kd is > 4 mM (inactive). As for `CC(=O)N[C@@H](CC(=O)O)C(=O)N[C@@H](CCC(=O)O)C(=O)O` (Ac-Asp-Glu-OH), the Kd is > 4 mM (inactive). Then `OCc1cc(-c2cccs2)on1`, with > 4 mM (inactive). Then `O=c1cc(-c2cc(O)c(O)c(O)c2)oc2cc(O)cc(O)c12`, with > 4 mM (inactive); and `Nc1nnc(Cc2ccc(Cl)cc2)s1`, with > 4 mM (inactive); and `COc1cccc(NC(=O)c2ocnc2C)c1`, with > 4 mM (inactive). Then `O=C(Nc1ccon1)c1sc2cc(F)ccc2c1Cl`, with > 4 mM (inactive); and `O=C(/C=C/c1ccccc1)c1ccc(O[C@@H]2O[C@H](CO)[C@@H](O)[C@H](O)[C@H]2O)cc1O`, with > 4 mM (inactive). Consider `NS(=O)(=O)c1ccc(NC(=O)c2ccccc2F)cc1`, for which the Kd is > 4 mM (inactive). As for `Nc1cccc(-c2cnco2)c1`, the Kd was > 4 mM (inactive). For `Cc1cc(C)n(S(=O)(=O)c2ccc(C)c(C)c2C)n1`, the Kd was > 4 mM (inactive).

For the compound `COc1ccccc1NC(C)=O`, the Kd is > 4 mM (inactive). The value for `COc1ccc(-c2c(C)n([O-])c(C)c(C)[n+]2=O)cc1` was > 4 mM (inactive); that for `CS(=O)(=O)N1CCN(C(=O)c2ccccc2)C1` was > 4 mM (inactive); that for `CC(C)=CCOc1c2occc2cc2ccc(=O)oc12` was > 4 mM (inactive). The value for `Nc1ccccc1OC(F)(F)F` was > 4 mM (inactive); that for `CC(=O)O[C@@H]1CC2C(C)(C)C(=O)C=C[C@]2(C)C2CC[C@]3(C)C(=CC(=O)O[C@H]3c3ccoc3)[C@@]21C` (some centres not stated) was > 4 mM (inactive). Then `NC(=O)Cn1nnc(-c2ccc(C(F)(F)F)cc2)n1`, with > 4 mM (inactive). In the case of `Cn1ncc(CO)c1-c1ccccc1`, the Kd is > 4 mM (inactive). The value for `O=C1CC(N2CCC(O)CC2)C(=O)N1c1ccc(F)cc1` (configuration not stated) was > 4 mM (inactive); that for `[O-][n+]1cc(O)c(CN2CCOCC2)c2ccccc21` was > 4 mM (inactive); that for `Cc1nn(C)c(C)c1NC(=S)NC1CCCC1` was > 4 mM (inactive).

As to `CC(=O)O[C@H]1C[C@@H](OC(C)=O)C(C)(C)C2C[C@@H](O)[C@]3(C)C(CC[C@@]4(C)[C@H](c5ccoc5)OC(=O)[C@H]5O[C@]543)[C@]21C` (some centres not stated), the Kd was > 4 mM (inactive). Then `C/C=C(/C)C(=O)O[C@@H]1[C@H](OC(C)=O)[C@@]2(CO)C(CC1(C)C)C1=CCC3[C@@]4(C)CC[C@H](O[C@@H]5O[C@H](C(=O)O)[C@@H](O[C@@H]6O[C@H](CO)[C@@H](O)[C@H](O)[C@H]6O)[C@H](O)[C@H]5O[C@@H]5O[C@H](CO)[C@@H](O)[C@H](O)[C@H]5O)[C@](C)(CO)C4CC[C@@]3(C)[C@]1(C)C[C@H]2O` (some centres not stated), with > 4 mM (inactive); and `c1ccc(Cn2c(Nn3cnnc3)nc3ccccc32)cc1`, with > 4 mM (inactive); and `CCc1ccccc1OCc1nnc(N)s1`, with > 4 mM (inactive). With `Cc1cc(/C=N/O)nc(=O)[nH]1`, the Kd is > 4 mM (inactive). The value for `O=C(NN1C(=O)CSC1=S)c1ccccc1` was > 4 mM (inactive); that for `O=C(O)CCC(=O)Nc1nccs1` was > 4 mM (inactive). In the case of `COc1cc2c(cc1OC)[C@@H]1C(=O)c3ccc4c(c3O[C@@H]1CO2)CC(C(C)C)O4` (some centres not stated), the Kd was > 4 mM (inactive). Then `COC(=O)c1scc(S(C)(=O)=O)c1-n1cccc1`, with > 4 mM (inactive); and `O=C(Nc1ccccc1Cl)c1cnccn1`, with > 4 mM (inactive); and `COc1ccc(N2CC(=O)NC2=O)cc1`, with > 4 mM (inactive). As for `CN1CCN(c2ccc(N)cc2)CC1`, the Kd is > 4 mM (inactive). For `CC(C)=CCc1c2c(c(O)c3c(=O)c(O)c(-c4ccccc4)oc13)C=CC(C)(C)O2`, the Kd is > 4 mM (inactive).

Consider `Cc1ccc(=O)[nH]c1`, for which the Kd is > 4 mM (inactive). Regarding `O=C(O)CN1C(=O)c2cccc([N+](=O)[O-])c2C1=O`, the Kd is > 4 mM (inactive).
